Values joined by “and” are separate entries in the source; they are usually repeats but may differ in a detail not shown here. Equal entries are not always repeated. Where two headings read alike, the source gives them in different places.
Tests used:
MDM2 = target: T1, MDM2 (Homo sapiens, UniProt Q00987); test: Inhibition test of MDM2-P53 (GST-MDM2, Biotin-P53, Anti-GST-Tb, SA-XL665); assay type: binding
T1 construct: made in house
Procedure, shortened: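 HTRF-type assay using 4 nM GST-MDM2 (final), Biotin-P53, SA-XL665 and anti-GST-Tb in PBS with 0.1% BSA, 5 mM DTT and 1 mM AEBSF. Compounds in 5-fold serial dilutions over twelve points; incubation 90 min at 25° C with shaking before plate-reader read-out.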

[1] = Pharmacokinetics in ICR mice after intravenous and intragastric administration; assay type: in vivo; conditions: for MRT inf: read-out: MRT(0-∞); for Vd: read-out: Vz; for MRT last: read-out: MRT(0-t)
Procedure, shortened: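 Male ICR mice (6-9 weeks, 20-30 g, n=3 per route) were fasted overnight and dosed at 2 mg/kg i.v. or 5 mg/kg intragastrically in 5% DMSO/40% PEG400/55% (10% HP-β-CD in saline). Plasma levels were measured by LC-MS/MS after protein precipitation (LLOQ 1 ng/mL), and non-compartmental PK parameters were calculated.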

[2] = system: human osteosarcoma cell line SJSA-1; test: Inhibition of proliferation of human osteosarcoma cell line SJSA-1 (DAPI staining, In Cell Analyzer); conditions: Homo sapiens, SJSA-1, 72 h, read-out: IC50 (nM), inhibitory activity on proliferation of human osteosarcoma cell line SJSA-1, SJSA-1, incubated 72 h
[3] = ICR mice, IV 2 mg/kg, individual animals 301-303, 2 mg/kg
[4] = ICR mice, PO 5 mg/kg, individual animals 401-403, 5 mg/kg
[5] = male, ICR, mouse, plasma, iv, 2 mg/kg, ICR mice, IV 2 mg/kg, individual animals 301-303
[6] = male, ICR, mouse, plasma, iv, 2 mg/kg, ICR mice, IV 2 mg/kg, mean of 3 animals
[7] = male, ICR, mouse, plasma, po, 5 mg/kg, ICR mice, PO 5 mg/kg, individual animals 401-403
[8] = male, ICR, mouse, plasma, po, 5 mg/kg, ICR mice, PO 5 mg/kg, mean of 3 animals

T1 sequence (Q00987 whole entry): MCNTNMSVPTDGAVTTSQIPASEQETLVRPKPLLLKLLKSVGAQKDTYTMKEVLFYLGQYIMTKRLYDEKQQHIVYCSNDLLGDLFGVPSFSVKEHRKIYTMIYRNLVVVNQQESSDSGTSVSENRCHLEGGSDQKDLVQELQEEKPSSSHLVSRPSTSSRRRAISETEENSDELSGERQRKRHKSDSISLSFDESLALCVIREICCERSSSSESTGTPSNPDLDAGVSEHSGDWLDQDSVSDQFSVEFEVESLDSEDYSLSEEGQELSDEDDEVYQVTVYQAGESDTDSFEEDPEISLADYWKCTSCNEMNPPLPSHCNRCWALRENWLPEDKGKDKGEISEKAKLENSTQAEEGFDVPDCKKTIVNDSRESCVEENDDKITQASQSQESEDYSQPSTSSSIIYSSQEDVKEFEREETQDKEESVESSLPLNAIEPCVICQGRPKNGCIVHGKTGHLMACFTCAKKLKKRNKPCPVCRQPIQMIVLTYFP

COc1cc(C(F)(F)F)ncc1-c1nc2c(n1C(C)C)[C@@]1(C(=O)Nc3cc(Cl)ccc31)N(c1cc(Cl)ccc1C)C2=O [Example S-138, (S)-6-chloro-5′-(5-chloro-2-methylphenyl)-3′-isopropyl-2′-(4-methoxy-6-(trifluoromethyl)pyridin-3-yl)-3′H-spiro[dihydroindole-3,4′-pyrrolo[3,4-d]imidazole]-2,6′(5′H)-dione]
IC50 (MDM2): 0.00104 µM
AUC(0-t) [1, 3]: 3427.99 ng·h/mL and 6387.52 ng·h/mL
AUC(0-∞) [1, 3]: 5237.36 ng·h/mL and 6445.45 ng·h/mL
CL [1, 3]: 6.36 mL/min/kg and 5.17 mL/min/kg
Cmax [1, 3]: 2002.99 ng/mL and 1828.27 ng/mL
MRT(0-t) [1, 3]: 4.04 h and 2.03 h and 4.19 h
MRT(0-∞) [1, 3]: 5.54 h and 4.42 h
Vz [1, 3]: 2.37 L/kg and 1.70 L/kg
t1/2 [1, 3]: 4.29 h and 3.81 h
F* ([1]; ICR mice, PO 5 mg/kg vs IV 2 mg/kg, mean): 58.12%
AUC(0-t) [1, 4]: 7494.57 ng·h/mL and 8147.05 ng·h/mL
AUC(0-∞) [1, 4]: 8818.35 ng·h/mL and 9514.89 ng·h/mL
Cmax [1, 4]: 1475.55 ng/mL and 1466.48 ng/mL
MRT(0-t) [1, 4]: 3.19 h and 3.27 h
MRT(0-∞) [1, 4]: 4.51 h and 4.52 h
Tmax [1, 4]: 4.00 h and 2.00 h and 1.00 h
t1/2 [1, 4]: 2.74 h
AUC(0-inf) [1, 5]: 6130 ng·h/mL
clearance [1, 5]: 5.44 mL/min/kg
AUC(0-t) ([1]; male, ICR, mouse, plasma, iv, 2 mg/kg, ICR mice, IV 2 mg/kg, individual animals 301-303, read-out: AUC(0-t)): 6060 ng·h/mL
Cmax ([1]; male, ICR, mouse, plasma, iv, 2 mg/kg, ICR mice, IV 2 mg/kg, individual animals 301-303, read-out: Cmax): 2170 ng/mL
MRT inf [1, 5]: 4.32 h
Tmax ([1]; male, ICR, mouse, plasma, iv, 2 mg/kg, ICR mice, IV 2 mg/kg, individual animals 301-303, read-out: Tmax): 0.08 h
Vd [1, 5]: 1.9 L/kg
half-life ([1]; male, ICR, mouse, plasma, iv, 2 mg/kg, ICR mice, IV 2 mg/kg, individual animals 301-303, read-out: t1/2 (converted)): 4.03 h
AUC(0-inf) [1, 6]: 5940 ng·h/mL
clearance [1, 6]: 5.66 mL/min/kg
AUC(0-t) ([1]; male, ICR, mouse, plasma, iv, 2 mg/kg, ICR mice, IV 2 mg/kg, mean of 3 animals, read-out: AUC(0-t)): 5290 ng·h/mL
Cmax ([1]; male, ICR, mouse, plasma, iv, 2 mg/kg, ICR mice, IV 2 mg/kg, mean of 3 animals, read-out: Cmax): 2000 ng/mL
MRT last [1, 6]: 3.42 h
MRT inf [1, 6]: 4.76 h
Tmax ([1]; male, ICR, mouse, plasma, iv, 2 mg/kg, ICR mice, IV 2 mg/kg, mean of 3 animals, read-out: Tmax): 0.083 h
Vd [1, 6]: 1.99 L/kg
half-life ([1]; male, ICR, mouse, plasma, iv, 2 mg/kg, ICR mice, IV 2 mg/kg, mean of 3 animals, read-out: t1/2 (converted)): 4.04 h
AUC(0-inf) [1, 7]: 9150 ng·h/mL
AUC(0-t) ([1]; male, ICR, mouse, plasma, po, 5 mg/kg, ICR mice, PO 5 mg/kg, individual animals 401-403, read-out: AUC(0-t)): 7430 ng·h/mL
Cmax ([1]; male, ICR, mouse, plasma, po, 5 mg/kg, ICR mice, PO 5 mg/kg, individual animals 401-403, read-out: Cmax): 1240 ng/mL
MRT last [1, 7]: 3.56 h
MRT inf [1, 7]: 5.12 h
half-life ([1]; male, ICR, mouse, plasma, po, 5 mg/kg, ICR mice, PO 5 mg/kg, individual animals 401-403, read-out: t1/2 (converted)): 2.69 h
AUC(0-inf) [1, 8]: 9160 ng·h/mL
AUC(0-t) ([1]; male, ICR, mouse, plasma, po, 5 mg/kg, ICR mice, PO 5 mg/kg, mean of 3 animals, read-out: AUC(0-t)): 7690 ng·h/mL
Cmax ([1]; male, ICR, mouse, plasma, po, 5 mg/kg, ICR mice, PO 5 mg/kg, mean of 3 animals, read-out: Cmax): 1390 ng/mL
MRT last [1, 8]: 3.34 h
MRT inf [1, 8]: 4.72 h
Tmax ([1]; male, ICR, mouse, plasma, po, 5 mg/kg, ICR mice, PO 5 mg/kg, mean of 3 animals, read-out: Tmax): 2.33 h
half-life ([1]; male, ICR, mouse, plasma, po, 5 mg/kg, ICR mice, PO 5 mg/kg, mean of 3 animals, read-out: t1/2 (converted)): 2.72 h
AUC(0-t) ([1]; male, ICR, mouse, plasma, po, 5 mg/kg, oral intragastric administration 5 mg/kg, read-out: AUC0-t): 7690 ng·h/mL
half-life ([1]; male, ICR, mouse, plasma, po, 5 mg/kg, oral intragastric administration 5 mg/kg, read-out: half-life (converted)): 2.72 h
IC50 [2]: 75.7 nM

From patent US11339171B2, “MDM2 inhibitors” (Gan & Lee Pharmaceuticals, priority 2017, dated 2022)
